# Calls of active or inactive are those of the source.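 Rule for the calls: active = compounds giving half or more protection of infected cells from virus-caused growth loss, again on retest; inactive = the rest.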 Where a SMILES comes first, the peptide text is derived from it. The star is where a group is joined. Boc = CC(C)(C)OC(=O)*; OBn = c1ccc(CO*)cc1
# Tested on: CEM cells HIV-1 protection, formazan growth assay
# Test: NCI AIDS Antiviral Assay
# Settings: for IC50: measured here: growth of uninfected CEM cells
# Outline: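 Five concentrations of each compound were applied to infected and uninfected human CEM cells. Protection from HIV-1 was judged from growth measured with a soluble formazan assay.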
SMILES,EC50 [µM],IC50 [µM],outcome
CC(C)(C)C(=O)ON1N=NC2C3CC(OCc4ccccc4)(OCc4ccccc4)C(O3)C21 (stereo not drawn),> 15.8,> 15.8,–
COc1ccc([C@]23CCN(S(=O)(=O)c4ccc(C)cc4)[C@H]2[C@H](CO)C2(CC3)OCC(C)(C)CO2)cc1OC,> 100,87.1,–
CC(C)CC12CC3CCC(CNC1=O)C32C (stereo not drawn),–,–,inactive
CCOC1(OCC)C2C=CC1C(COS(=O)(=O)c1ccc(C)cc1)C2COS(=O)(=O)c1ccc(C)cc1 (stereo not drawn),> 200,14.1,–
CC(NC(=O)CNC(=O)OC(C)(C)C)C(=O)NC(Cc1ccccc1)C(=O)OCc1ccccc1 (stereo not drawn) (Boc-Gly-Ala-Phe-OBn; configuration not given here),> 200,77.6,–
COc1cc(C2c3cc4c(cc3[C@H](NS(C)(=O)=O)C3COC(=O)[C@H]23)OCO4)cc(OC)c1OC (stereo partly drawn),–,–,inactive
CCc1ccc(/C(C)=N/NC(N)=S)cc1,–,–,inactive
CCOP(=O)(OCC)OC1C=CC2CCC1C2 (stereo not drawn),> 191,> 191,–
CN1C(=O)C2CCCC(=O)N2c2cccnc21 (stereo not drawn),> 200,> 200,–
CCCCCCOc1ccc(C(=O)NOCc2ccccc2)cc1,> 200,66.1,–
CN1N=C(c2ccccc2)c2cc(Cl)ccc2N=C1N/N=C/c1ccc(N(C)C)cc1,> 200,> 200,–
c1ccc([P+](CCN2Cc3ccccc3C2)(c2ccccc2)c2ccccc2)cc1,> 200,3.31,–
CCCCNC(=O)C1C2C=CC(O2)C1C(=O)O (stereo not drawn),> 200,> 200,–
CC(=O)CC(c1ccc2c(c1)OCO2)c1c(O)c2ccccc2oc1=O (stereo not drawn),> 200,135,–
Cn1c(N)c(-c2c3ccccc3nc3ccccc23)c(=O)n(C)c1=O,> 40.7,> 40.7,–
CSc1nc(NC2OCC(O)C(O)C2O)c(N)c(=O)n1C (stereo not drawn),–,–,inactive
O=C1CCC2(c3ccc(F)cc3)Nc3cc(Cl)ccc3N12 (stereo not drawn),–,–,inactive

SMILES,EC50 [µM],IC50 [µM],outcome
[N-]=[N+]=CC(=O)C1CCCN1C(=O)c1ccccc1 (stereo not drawn),> 200,> 200,–
O=C(O)COc1ccc(S(=O)(=O)c2ccc(OCC(=O)O)c([N+](=O)[O-])c2)cc1[N+](=O)[O-],> 200,> 200,–
CC(=O)N1CCC2(C=Nc3ccccc32)CC1,> 22.9,> 22.9,–
O=c1c2ccc(Cl)cc2nc2nc(-c3ccccc3)c3cc(Cl)ccc3n12,> 200,> 100,–
Clc1ccc(C2ON=C(c3ccccc3)N2C23CC4CC(CC(C4)C2)C3)c(Cl)c1 (stereo not drawn),> 200,> 200,–
O=C(NC(=O)c1cn(CCN2CCN(C(=O)NCCCCCCNC(=O)N3CCN(CCn4cc(C(=O)NC(=O)OCc5ccccc5)c(=O)[nH]c4=O)CC3)CC2)c(=O)[nH]c1=O)OCc1ccccc1,–,–,inactive
CC12CCC(OC3OC(CO)C(OC4OC(CO)C(O)C(O)C4O)C(O)C3O)CC1CCC1C2CCC2(C)C(C3=CC(=O)OC3)CCC12O (stereo not drawn),> 20,0.309,–
CC1=NNC(=NCCN(C)C)C/C1=C/c1ccccc1Cl,–,–,inactive
Cc1ccc2c3c(nsc13)-c1ccccc1C2=O,> 53.7,> 53.7,–
CCCCCCCCCCCCCCCCCCOP(=O)(O)OCCC=C(c1cc(Cl)c(O)c(C(=O)O)c1)c1cc(Cl)c(O)c(C(=O)O)c1,> 170,63.1,–
C[CH2][Sn]([CH2]C)([S]CCS(=O)(=O)O)[S]CCS(=O)(=O)O,> 200,3.72,–
O=c1ccc(=O)n(CO)[nH]1,> 1780,97.7,–
C1N2CN3CN1CN(C2)C3,> 200,151,–
COc1ccc(CN2CC(C)N(N=Cc3c4c(O)c5c(O)c(C)c6c(c5c3O)C(=O)C(C)(O/C=C/C(OC)C(C)C(OC(C)=O)C(C)C(O)C(C)C(O)C(C)/C=C/C=C(\C)C(=O)N4)O6)C(C)C2)cc1 (stereo not drawn),> 200,9.12,–
COC(=O)c1cc(C(c2cc(C(=O)OC)c(O)cc2C)C(Cl)Cl)c(C)cc1O,> 91.2,6.46,–
O=C(CCc1ccccc1)On1nnc2ccccc2c1=O,–,–,inactive

# Reference: PubChem BioAssay AID179 (DTP/NCI, 2004)
